Measurements reported in ChEMBL document CHEMBL1129222, “Anti-AIDS agents. 291. Anti-HIV activity of modified podophyllotoxin derivatives” (Bioorg Med Chem Lett, 1997).

Columns and labels:
[1] = test system: H9; assay: Cytotoxicity against H9 cell line; format: functional, cell-based; conditions: Homo sapiens
[2] = Therapeutic index (IC50/EC50); format: cell-based; conditions: human, H9 cells; read-out: Therapeutic index
[3] = test system: H9; assay: Evaluation for anti-HIV activity using T cell line (H9).; format: functional, cell-based; conditions: Homo sapiens
[4] = test system: H9; assay: The compound was evaluated for anti-HIV activity using T cell line (H9); No suppression; format: functional, cell-based, Homo sapiens
[5] = test system: H9; assay: The compound was evaluated for anti-HIV activity using T cell line (H9); conditions: Homo sapiens
[6] = test system: H9; assay: as above; conditions: Homo sapiens; remark: listed apart in the source
[7] = test system: H9; assay: The compound was evaluated for cytotoxicity against H9 cell line; Toxic; format: toxicity, cell-based, Homo sapiens

COc1cc2c(cc1OC)[C@@H](Nc1ccc(C#N)cc1)[C@H]1COC(=O)[C@@H]1[C@@H]2c1cc(OC)c(O)c(OC)c1
IC50 [1]: 141 nM
selectivity ratio [2]: > 141
EC50 [3]: < 1 nM

COc1cc([C@@H]2c3cc(O)c(O)cc3[C@@H](O)[C@H]3COC(=O)[C@H]23)cc(OC)c1O
IC50 [1]: 45000 nM
EC50 [4]: Not Active

CCS[C@@H]1c2cc3c(cc2[C@@H](c2cc(OC)c(OC)c(OC)c2)[C@H]2C(=O)OC[C@@H]21)OCO3
IC50 [1]: 320 nM
selectivity ratio [2]: 2
EC50 [3]: 160 nM

COc1cc([C@@H]2c3cc4c(cc3[C@@H](Nc3ccc(F)cc3)[C@H]3COC(=O)[C@H]23)OCO4)cc(OC)c1O
IC50 [1]: 1000 nM
selectivity ratio [2]: 10
EC50 [3]: 100 nM

COc1cc([C@@H]2c3cc4c(cc3[C@@H](Nc3ccc([N+](=O)[O-])cc3)[C@H]3COC(=O)[C@H]23)OCO4)cc(OC)c1O
IC50 [1]: 70 nM
selectivity ratio [2]: 55.8
EC50 [3]: < 1.28 nM

COc1cc([C@@H]2c3cc4c(cc3[C@@H](Nc3ccc(F)cc3)[C@H]3COC[C@H]23)OCO4)cc(OC)c1O
IC50 [1]: 1500 nM
selectivity ratio [2]: 12.5
EC50 [3]: 120 nM

COc1cc([C@@H]2c3cc4c(cc3C(=O)[C@H]3COC(=O)[C@H]23)OCO4)cc(O)c1O
EC50 [5]: 3000 nM
IC50 [1]: 9000 nM
selectivity ratio [2]: 3

COc1cc([C@@H]2c3cc4c(cc3[C@@H](Nc3ccc(F)cc3)[C@H]3COC(O)[C@H]23)OCO4)cc(OC)c1O (some centres not stated)
IC50 [1]: 1800 nM
selectivity ratio [2]: 4
EC50 [3]: 450 nM

COc1cc([C@@H]2c3cc(O)c(O)cc3[C@@H](Nc3ccc(F)cc3)[C@H]3COC(=O)[C@H]23)cc(OC)c1O
IC50 [1]: 29000 nM
selectivity ratio [2]: 4.1
EC50 [3]: 7000 nM

COc1cc([C@@H]2c3cc4c(cc3[C@@H](Sc3ccc(O)cc3)[C@H]3COC(=O)[C@H]23)OCO4)cc(OC)c1O
IC50 [1]: 1700 nM
selectivity ratio [2]: 2.1
EC50 [3]: 800 nM

CCOC(=O)c1ccc(N[C@@H]2c3cc(OC)c(OC)cc3[C@@H](c3cc(OC)c(O)c(OC)c3)[C@H]3C(=O)OC[C@@H]32)cc1
IC50 [1]: 120 nM
selectivity ratio [2]: > 120
EC50 [3]: < 1 nM

COc1cc2c(cc1OC)[C@@H](Nc1ccc([N+](=O)[O-])cc1)[C@H]1COC(=O)[C@@H]1[C@@H]2c1cc(OC)c(O)c(OC)c1
IC50 [1]: 158 nM
selectivity ratio [2]: > 158
EC50 [6]: < 1 nM

COc1cc2c(cc1OC)[C@@H](Nc1ccc(F)cc1)[C@H]1COC(=O)[C@@H]1[C@@H]2c1cc(OC)c(O)c(OC)c1
IC50 [1]: 166 nM
selectivity ratio [2]: > 166
EC50 [3]: < 1 nM

COc1cc([C@@H]2c3cc4c(cc3[C@@H](Oc3ccc(F)cc3)[C@H]3COC(=O)[C@H]23)OCO4)cc(OC)c1O
IC50 [1]: 800 nM
selectivity ratio [2]: 1.8
EC50 [3]: 450 nM

CCS[C@@H]1c2cc3c(cc2[C@@H](c2cc(OC)c(O)c(OC)c2)[C@H]2C(=O)OC[C@@H]21)OCO3
IC50 [1]: 1900 nM
EC50 [4]: Not Active

CCN(CC)[C@@H]1c2cc3c(cc2[C@@H](c2cc(OC)c(O)c(OC)c2)[C@H]2C(=O)OC[C@@H]21)OCO3.Cl
IC50 [1]: > 100000 nM
EC50 [4]: No supperssion

COc1cc([C@@H]2c3cc4c(cc3C(=O)[C@H]3COC(=O)[C@H]23)OCO4)cc(OC)c1O
IC50 [1]: 1700 nM
selectivity ratio [2]: 2.1
EC50 [3]: 800 nM

CCN(CC)CCN[C@@H]1c2cc3c(cc2[C@@H](c2cc(OC)c(O)c(OC)c2)[C@H]2C(=O)OC[C@@H]21)OCO3
IC50 [1]: 8000 nM
selectivity ratio [2]: 0.8
EC50 [3]: 10000 nM

COc1cc([C@@H]2c3cc4c(cc3[C@@H](O)[C@H]3COC(=O)[C@H]23)OCO4)cc(N)c1N
IC50 [1]: 6600 nM
selectivity ratio [2]: 3.9
EC50 [3]: 1700 nM

COc1cc2c(cc1OC)[C@@H](Nc1ccc(F)cc1)[C@H]1COC(=O)[C@@H]1[C@@H]2c1cc(OC)c(OC)c(OC)c1
IC50 [1]: 9700 nM
selectivity ratio [2]: 4.4
EC50 [3]: 2200 nM

COc1cc([C@@H]2c3cc(O)c(O)cc3[C@H](O)[C@H]3COC(=O)[C@H]23)cc(OC)c1O
IC50 [1]: 1850 nM
EC50 [4]: Not Active

COc1cc([C@@H]2c3cc4c(cc3[C@@H](Nc3ccc(F)cc3)[C@H]3COC(=O)[C@H]23)OCO4)cc(OC)c1OC
IC50 [1]: 1500 nM
selectivity ratio [2]: 3.3
EC50 [3]: 450 nM

COc1cc([C@@H]2c3cc4c(cc3[C@@H](O)[C@H]3COC(=O)[C@H]23)OCO4)cc(OC)c1O [4'-DEMETHYLEPIPODOPHYLLOTOXIN]
IC50 [1]: 70 nM
EC50 [4]: Not Active

COc1cc([C@@H]2c3cc4c(cc3[C@H](O)[C@H]3COC(=O)[C@H]23)OCO4)cc(OC)c1OC [PODOFILOX]
IC50 [7]: Toxic

Cc1cn([C@H]2C[C@H](N=[N+]=[N-])[C@@H](CO)O2)c(=O)[nH]c1=O [ZIDOVUDINE]
IC50 [1]: 500000 nM
EC50 [3]: 9 nM
